Columns and labels:
[1] = Cytotoxic activity against human lymphoblast tumor cell line CPT-K5 after 4 days of treatment; assay type: functional; conditions: CPT-K5, 96 h
[2] = molecular target: T1, DNA topoisomerase 1 (Homo sapiens) (UniProt P11387)
T1 sequence (whole entry): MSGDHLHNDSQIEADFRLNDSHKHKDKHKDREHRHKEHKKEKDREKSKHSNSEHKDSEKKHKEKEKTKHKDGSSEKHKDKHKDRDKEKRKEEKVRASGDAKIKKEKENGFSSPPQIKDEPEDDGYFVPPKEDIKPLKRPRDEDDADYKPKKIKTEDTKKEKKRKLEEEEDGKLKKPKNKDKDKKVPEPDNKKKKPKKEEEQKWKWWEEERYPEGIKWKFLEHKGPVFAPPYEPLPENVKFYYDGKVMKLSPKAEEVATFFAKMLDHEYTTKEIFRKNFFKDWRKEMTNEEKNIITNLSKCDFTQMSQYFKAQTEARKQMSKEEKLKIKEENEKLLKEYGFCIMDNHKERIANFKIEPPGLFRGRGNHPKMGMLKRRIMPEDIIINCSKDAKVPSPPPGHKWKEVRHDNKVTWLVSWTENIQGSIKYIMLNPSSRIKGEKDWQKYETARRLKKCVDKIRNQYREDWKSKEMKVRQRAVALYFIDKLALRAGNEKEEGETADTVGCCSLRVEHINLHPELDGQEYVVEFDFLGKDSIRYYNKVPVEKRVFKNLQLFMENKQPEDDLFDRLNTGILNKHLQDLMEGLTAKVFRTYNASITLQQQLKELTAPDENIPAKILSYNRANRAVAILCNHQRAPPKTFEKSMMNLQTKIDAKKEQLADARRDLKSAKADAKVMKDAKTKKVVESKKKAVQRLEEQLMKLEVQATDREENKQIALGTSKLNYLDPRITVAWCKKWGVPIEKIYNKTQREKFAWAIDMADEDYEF
Description: Effective concentration required to cleave DNA, mediated by human DNA topoisomerase I (TOP1) reported as REC i.e. concentration relative to topotecan (assumed as 1)

RPMI 8402 = experiment: Cytotoxic activity against human lymphoblast tumor cell line RPMI8402 after 4 days of treatment; assay type: functional, cell-based; conditions: RPMI 8402, 96 h

| SMILES | IC50 [1] [µM] | REC [2] | IC50 (RPMI 8402) [µM] |
| --- | --- | --- | --- |
| COc1cc2c(=O)n(CCN(C)C)c3c4cc5c(cc4nnc3c2cc1OC)OCO5 | 0.6 | 0.3 |  |
| COc1cc([C@@H]2c3cc4c(cc3[C@@H](O[C@@H]3O[C@@H]5CO[C@@H](c6cccs6)O[C@H]5[C@H](O)[C@H]3O)[C@H]3COC(=O)[C@H]23)OCO4)cc(OC)c1O [TENIPOSIDE] | 0.28 | > 1000 |  |
| CC[C@@]1(O)C(=O)OCc2c1cc1n(c2=O)Cc2cc3c(CN(C)C)c(O)ccc3nc2-1 [TOPOTECAN] | > 50 | 1 |  |
| COc1cc2c(=O)n(CCN(C)C)c3c4cc5c(cc4ncc3c2cc1OC)OCO5 | 0.9 |  |  |
| CC[C@@]1(O)C(=O)OCc2c1cc1n(c2=O)Cc2cc3ccccc3nc2-1 [CAMPTOTHECIN] |  | 0.5 | 0.005 |
| CN(C)CCn1c(=O)c2cccc(N)c2c2cnc3cc4c(cc3c21)OCO4 | 3.2 | 15 | 0.34 |
| CN(C)CCn1c(=O)c2ccc([N+](=O)[O-])cc2c2cnc3cc4c(cc3c21)OCO4 | 2.8 | 0.1 | 0.002 |
| CN(C)CCn1c(=O)c2cc([N+](=O)[O-])ccc2c2cnc3cc4c(cc3c21)OCO4 | 0.33 | 0.2 | 0.003 |
| CN1CCN(c2ccnc3cc4c(cc23)OCO4)C(=O)c2cc([N+](=O)[O-])ccc21 | > 10 | 1000 | 3 |
| CN(C)CCn1c(=O)c2ccc(N)cc2c2cnc3cc4c(cc3c21)OCO4 | 1 | 0.5 | 0.025 |
| CN(C)CCn1c(=O)c2cccc([N+](=O)[O-])c2c2cnc3cc4c(cc3c21)OCO4 | > 10 | 1000 | 4.8 |
| CN(C)CCn1c(=O)c2cc(N)ccc2c2cnc3cc4c(cc3c21)OCO4 | 0.38 | 8 | 0.08 |
| CCCCn1c(=O)c2cc(N)ccc2c2cnc3cc4c(cc3c21)OCO4 | > 10 | 500 | 1.25 |
| CCCCn1c(=O)c2cc([N+](=O)[O-])ccc2c2cnc3cc4c(cc3c21)OCO4 | > 10 | 10 | 0.24 |
| CN(C)CCn1c(=O)c2ccccc2c2cnc3cc4c(cc3c21)OCO4 | 0.95 | 6 | 0.06 |

— ChEMBL document CHEMBL1145000, “Nitro and amino substitution in the D-ring of 5-(2-dimethylaminoethyl)- 2,3-methylenedioxy-5H-dibenzo[c,h][1,6]naphthyridin-6-ones: effect on topoisomerase-I targeting activity and cytotoxicity” (J Med Chem, 2003)
